Key:
[1] = test system: calcium channels in dorsal root ganglion (DRG) neurons; assay type: cell-based; details: rat DRG neurons
Procedure: Intact neurons of rat dorsal root ganglia (DRG) were used for whole-cell patch-clamp recordings.
DRGs were isolated from adult Wistar rats (200 ± 300 g) and neurons cultured as described by Lindsay (1988) [35] with minor modifications. The neurons were isolated and washed by gravity in phosphate-buffered saline (PBS). The cells were than incubated with collagenase type IV (sigma, St. Louis, MO, USA) solution (5 mL of Dulbecco’s modified Eagle’s medium—DMEM; 10% v/v fetal bovine serum; penicillin 200 units/mL—streptomycin 200 μg/mL; 12.5 mg of collagenase type IV) for 90 min at 37 °C. After that, ganglions were washed 3 times by gravity in PBS and trypsin solution (2500–6000 BAEE U/ML, sigma, St. Louis, MO, USA) was added. In order to dissociate the DRG neurons, the ganglions were taken up and down with the use of a fine tipped transfer pipette. Cells were then incubated with the trypsin solution for 10 min at 37 °C. After the incubation period, 1 mL of bovine serum albumin (BSA) solution (16% v/v in PBS) was added and cells were more firmly dissociated. The cell suspension was added on the top of 3 mL BSA solution and centrifuged at 500× g for 6 min. The supernatant was discarded and the pellet was resuspended in complete media (DMEM media; 10% v/v fetal bovine serum; 1% v/v penicillin/streptomycin; 0.1% v/v NGF). […]

[2] = test system: μ-opioid receptors; details: cited from earlier work
[3] = test system: μ-opioid receptor-β-arrestin2 association; assay: BiFC β-arrestin2 recruitment in HEK293T cells; assay type: cell-based; details: HEK293T coexpressing μ-opioid receptor-Yc and β-arrestin2-Yn; 10^−10 M–10^−4 M, 60 min, 37 °C; normalized by 10 μM DAMGO (100%); n = 5
Procedure: HEK293T were cultured in DMEM (Sigma-Aldrich) supplemented with 10% v/v fetal bovine serum. […] To analyze whether activation of μ-opioid receptor would induce recruitment of β-arrestin2, the Bimolecular fluorescence complementation (BiFC) based detection of μ-opioid receptor-β-arrestin2 association was conducted. The cells were seeded at 33,000 cells/well onto poly (D-lysine)-coated Greiner 655,090 imaging plates. Plates were kept in a humidified incubator at 37 °C filled with 5% CO2 for 24 h. […] After that, cells were fixated with 3% paraformaldehyde in PBS for 10 min at room temperature. Then, cells were washed once with PBS and the cell nuclei were stained for 15 min with H33342 (2 μg/mL in PBS, Sigma, St. Louis, MO, USA). H33342 was then removed by a final PBS wash. Images (4 central sites/well) were acquired automatically on the IX Ultra confocal plate reader, using 405 nm/488 nm laser lines for H33342 and complemented YFP excitation, respectively. Data was analyzed by the use of MetaXpress software (version 5.3, Sunnyvale, CA, USA, 2013) as described by Liu and co-authors [38] and normalized by 10 μM of DAMGO (100%).

Compound: C=CCN1CC[C@]23c4c5ccc(O)c4O[C@H]2C(=O)CC[C@@]3(O)[C@H]1C5 [naloxone]
- effect of naloxone alone on calcium current density ([1]; 10 μM naloxone): no significant effect on the current density
- effect of naloxone pre-incubation on PnPP-19 inhibition of calcium current ([1]; 10 μM naloxone for 30 min, then 1 μM PnPP-19): completely blocks the activity of PnPP-19

Compound: C[C@@H](Cc1ccsc1)NC(=O)NC[C@H](Cc1ccc(O)cc1)N(C)C [PZM21]
- β-arrestin2 recruitment [2]: minimal β-arrestin2 recruitment

Compound: [D-Ala^2, MePhe^4, Gly-ol^5] encephalin [DAMGO]
- β-arrestin2 recruitment [3]: could clearly induce β-arrestin2 recruitment
